# Measured values published in ChEMBL document CHEMBL5257081, “Discovery of novel PROTACs based on multi-targeted angiogenesis inhibitors” (Bioorg Med Chem Lett, 2023).
# Activity calls are given as the source filed them. The rule behind the calls is not given here.
# Assays:
# [1] = Antiproliferative activity against human EA.hy 926 cells assessed as inhibition of cell growth; type: toxicity, cell-based
# [2] = test system: A549; assay: Antiproliferative activity against human A549 cells assessed as inhibition of cell growth; type: functional, cell-based
# [3] = test system: MDA-MB-453; assay: Antiproliferative activity against human MDA-MB-453 cells assessed as inhibition of cell growth; type: functional, cell-based
# [4] = test system: HEK293; assay: Cytotoxicity against human HEK293 cells assessed as inhibition of cell growth; type: toxicity, cell-based
# [5] = target: T1, von Hippel-Lindau disease tumor suppressor/Vascular endothelial growth factor receptor 2 (Homo sapiens, UniProt P35968+P40337); assay: Protac activity at VHL E3 ubiquitin ligase/VEGFR-2 (unknown origin) assessed as […] by ADP-Glo Kinase assay
# Target sequence in this assay (P35968 whole entry): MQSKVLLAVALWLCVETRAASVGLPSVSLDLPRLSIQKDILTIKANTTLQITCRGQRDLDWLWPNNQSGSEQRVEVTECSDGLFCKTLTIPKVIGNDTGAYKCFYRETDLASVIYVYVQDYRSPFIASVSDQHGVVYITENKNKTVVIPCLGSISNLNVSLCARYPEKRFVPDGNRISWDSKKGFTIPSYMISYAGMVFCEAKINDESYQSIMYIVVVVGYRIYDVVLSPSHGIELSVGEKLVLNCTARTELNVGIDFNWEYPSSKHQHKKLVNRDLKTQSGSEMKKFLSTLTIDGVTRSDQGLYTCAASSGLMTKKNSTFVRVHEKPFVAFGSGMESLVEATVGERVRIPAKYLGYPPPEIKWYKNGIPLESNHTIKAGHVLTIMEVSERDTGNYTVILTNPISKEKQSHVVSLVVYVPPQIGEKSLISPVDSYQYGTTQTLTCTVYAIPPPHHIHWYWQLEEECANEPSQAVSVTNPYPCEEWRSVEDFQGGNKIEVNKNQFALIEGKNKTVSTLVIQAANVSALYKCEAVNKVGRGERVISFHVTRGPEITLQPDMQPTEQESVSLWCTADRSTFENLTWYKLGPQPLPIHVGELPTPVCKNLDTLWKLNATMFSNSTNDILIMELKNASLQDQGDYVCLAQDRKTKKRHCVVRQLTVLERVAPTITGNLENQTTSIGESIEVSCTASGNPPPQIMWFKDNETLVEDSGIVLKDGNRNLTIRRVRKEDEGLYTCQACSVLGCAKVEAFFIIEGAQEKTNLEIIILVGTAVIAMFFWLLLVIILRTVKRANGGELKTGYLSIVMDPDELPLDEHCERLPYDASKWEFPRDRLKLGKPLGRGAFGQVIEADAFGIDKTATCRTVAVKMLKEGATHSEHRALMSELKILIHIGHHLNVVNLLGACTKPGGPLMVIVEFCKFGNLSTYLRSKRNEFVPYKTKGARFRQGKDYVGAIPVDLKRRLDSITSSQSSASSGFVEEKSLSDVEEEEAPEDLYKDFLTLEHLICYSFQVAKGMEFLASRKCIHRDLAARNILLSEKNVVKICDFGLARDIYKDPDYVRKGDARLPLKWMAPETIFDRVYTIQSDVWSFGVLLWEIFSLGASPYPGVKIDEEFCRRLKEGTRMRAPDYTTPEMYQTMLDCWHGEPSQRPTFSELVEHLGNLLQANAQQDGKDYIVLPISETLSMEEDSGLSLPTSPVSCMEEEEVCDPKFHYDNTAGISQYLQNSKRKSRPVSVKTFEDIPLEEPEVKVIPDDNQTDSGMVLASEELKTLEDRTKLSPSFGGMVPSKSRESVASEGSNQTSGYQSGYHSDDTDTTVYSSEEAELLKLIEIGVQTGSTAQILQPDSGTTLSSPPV
# Target sequence in this assay (P40337 whole entry): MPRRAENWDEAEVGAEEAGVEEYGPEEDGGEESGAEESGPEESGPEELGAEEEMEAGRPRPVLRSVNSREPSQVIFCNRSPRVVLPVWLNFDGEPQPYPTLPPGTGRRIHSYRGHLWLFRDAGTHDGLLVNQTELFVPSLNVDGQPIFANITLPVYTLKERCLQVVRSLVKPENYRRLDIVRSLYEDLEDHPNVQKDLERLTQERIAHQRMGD
# [6] = target: T2, von Hippel-Lindau disease tumor suppressor/Serine/threonine-protein kinase B-raf (Homo sapiens) (UniProt P15056+P40337); assay: Protac activity at E3 ubiquitin ligase/BRAF in human EA.hy 926 cells assessed as degradation of BRAF protein at 10 to 60 uM incubated for 48 hrs by western blot assay; type: cell-based; details: dose 10-60 µM
# [7] = target: T1, von Hippel-Lindau disease tumor suppressor/Vascular endothelial growth factor receptor 2; assay: Protac activity at VHL E3 ubiquitin ligase/VEGFR-2 in human EA.hy 926 cells assessed as degradation of VEGFR-2 protein at 10 to 60 uM incubated for 48 hrs by western blot assay; type: cell-based; details: dose 10-60 µM
# Target sequence in this assay (P35968 20-1356 limits assumed): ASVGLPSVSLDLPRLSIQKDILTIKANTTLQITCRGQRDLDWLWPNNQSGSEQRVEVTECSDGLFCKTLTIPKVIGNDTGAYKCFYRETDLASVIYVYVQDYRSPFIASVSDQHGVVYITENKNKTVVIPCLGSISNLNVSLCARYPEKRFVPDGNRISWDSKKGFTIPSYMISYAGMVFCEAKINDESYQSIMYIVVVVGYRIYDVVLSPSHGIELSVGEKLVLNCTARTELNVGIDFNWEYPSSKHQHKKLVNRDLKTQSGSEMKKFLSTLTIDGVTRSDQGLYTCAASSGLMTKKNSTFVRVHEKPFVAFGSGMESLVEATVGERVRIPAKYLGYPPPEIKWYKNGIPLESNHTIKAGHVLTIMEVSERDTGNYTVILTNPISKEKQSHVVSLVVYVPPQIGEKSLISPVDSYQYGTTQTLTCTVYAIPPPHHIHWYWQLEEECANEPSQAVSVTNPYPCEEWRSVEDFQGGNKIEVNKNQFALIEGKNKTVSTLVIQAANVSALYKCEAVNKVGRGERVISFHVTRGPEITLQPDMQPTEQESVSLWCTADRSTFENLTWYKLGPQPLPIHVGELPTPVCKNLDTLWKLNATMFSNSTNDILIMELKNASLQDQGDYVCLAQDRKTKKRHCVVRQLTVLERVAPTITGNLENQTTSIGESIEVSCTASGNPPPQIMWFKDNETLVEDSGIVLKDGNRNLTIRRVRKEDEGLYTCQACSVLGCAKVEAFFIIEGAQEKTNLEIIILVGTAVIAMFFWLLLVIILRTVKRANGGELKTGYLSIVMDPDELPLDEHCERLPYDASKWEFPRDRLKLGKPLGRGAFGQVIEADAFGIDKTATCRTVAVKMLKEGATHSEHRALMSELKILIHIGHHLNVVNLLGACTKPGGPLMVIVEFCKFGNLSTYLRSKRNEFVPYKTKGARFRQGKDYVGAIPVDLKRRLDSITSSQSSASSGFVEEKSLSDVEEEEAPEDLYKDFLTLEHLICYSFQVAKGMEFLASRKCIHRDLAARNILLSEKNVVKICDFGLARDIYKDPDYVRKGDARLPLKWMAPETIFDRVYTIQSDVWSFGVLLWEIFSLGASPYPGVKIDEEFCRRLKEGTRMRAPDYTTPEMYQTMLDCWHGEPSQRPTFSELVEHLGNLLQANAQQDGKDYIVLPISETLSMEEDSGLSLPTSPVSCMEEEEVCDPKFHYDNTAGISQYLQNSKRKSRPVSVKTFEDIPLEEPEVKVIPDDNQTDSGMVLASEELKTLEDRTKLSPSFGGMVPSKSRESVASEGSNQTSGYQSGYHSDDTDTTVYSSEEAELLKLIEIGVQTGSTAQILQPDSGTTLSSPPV
# Target sequence in this assay (P40337 whole entry partner): as the sequence (P40337 whole entry) above
# [8] = target: T2, von Hippel-Lindau disease tumor suppressor/Serine/threonine-protein kinase B-raf (Homo sapiens); assay: Protac activity at E3 ubiquitin ligase/BRAF in human EA.hy 926 cells assessed as degradation of BRAF protein at 30 uM preincubated with VH032 for 2 hrs followed by compound addition and measured after 48 hrs by Western blot analysis; type: cell-based
# [9] = target: T2, von Hippel-Lindau disease tumor suppressor/Serine/threonine-protein kinase B-raf (Homo sapiens); assay: Protac activity at E3 ubiquitin ligase/BRAF in human EA.hy 926 cells assessed as degradation of BRAF protein at 30 uM preincubated with S5 for 2 hrs followed by compound addition and measured after 48 hrs by Western blot analysis; type: cell-based
# [10] = target: T1, von Hippel-Lindau disease tumor suppressor/Vascular endothelial growth factor receptor 2; assay: Protac activity at VHL E3 ubiquitin ligase/VEGFR-2 in human EA.hy 926 cells assessed as degradation of VEGFR-2 protein preincubated with carfilzomib; type: cell-based
# Target sequence in this assay (P35968 20-1356 limits assumed): as the sequence (P35968 20-1356 limits assumed) above
# Target sequence in this assay (P40337 whole entry partner): as the sequence (P40337 whole entry) above
# [11] = test system: EA.hy 926; assay: Induction of apoptosis in human EA.hy 926 cells assessed as viable cells at 0.1 uM incubated for 72 hrs by annexin-V/PI staining based flow cytometry analysis (reference value: 93.8%); type: functional; details: read-out: Activity
# [12] = test system: EA.hy 926; assay: Induction of apoptosis in human EA.hy 926 cells assessed as early apoptotic cells at 0.1 uM incubated for 72 hrs by annexin-V/PI staining based flow cytometry analysis (reference value: 0.71%); type: functional
# [13] = test system: EA.hy 926; assay: Induction of apoptosis in human EA.hy 926 cells assessed as late apoptotic cells at 0.1 uM incubated for 72 hrs by annexin-V/PI staining based flow cytometry analysis (reference value: 3.07%); type: functional
# [14] = test system: EA.hy 926; assay: Induction of apoptosis in human EA.hy 926 cells assessed as necrotic cells at 0.1 uM incubated for 72 hrs by annexin-V/PI staining based flow cytometry analysis (reference value: 2.34%); type: functional
# [15] = test system: EA.hy 926; assay: Induction of apoptosis in human EA.hy 926 cells assessed as viable cells at 1 uM incubated for 72 hrs by annexin-V/PI staining based flow cytometry analysis (reference value: 93.8%); type: functional; details: read-out: Activity
# [16] = test system: EA.hy 926; assay: Induction of apoptosis in human EA.hy 926 cells assessed as early apoptotic cells at 1 uM incubated for 72 hrs by annexin-V/PI staining based flow cytometry analysis (reference value: 0.71%); type: functional
# [17] = test system: EA.hy 926; assay: Induction of apoptosis in human EA.hy 926 cells assessed as late apoptotic cells at 1 uM incubated for 72 hrs by annexin-V/PI staining based flow cytometry analysis (reference value: 3.07%); type: functional
# [18] = test system: EA.hy 926; assay: Induction of apoptosis in human EA.hy 926 cells assessed as necrotic cells at 1 uM incubated for 72 hrs by annexin-V/PI staining based flow cytometry analysis (reference value: 2.34%); type: functional
# [19] = test system: EA.hy 926; assay: Induction of apoptosis in human EA.hy 926 cells assessed as viable cells at 10 uM incubated for 72 hrs by annexin-V/PI staining based flow cytometry analysis (reference value: 93.8%); type: functional; details: read-out: Activity
# [20] = test system: EA.hy 926; assay: Induction of apoptosis in human EA.hy 926 cells assessed as early apoptotic cells at 10 uM incubated for 72 hrs by annexin-V/PI staining based flow cytometry analysis (reference value: 0.71%); type: functional
# [21] = test system: EA.hy 926; assay: Induction of apoptosis in human EA.hy 926 cells assessed as late apoptotic cells at 10 uM incubated for 72 hrs by annexin-V/PI staining based flow cytometry analysis (reference value: 3.07%); type: functional
# [22] = test system: EA.hy 926; assay: Induction of apoptosis in human EA.hy 926 cells assessed as necrotic cells at 10 uM incubated for 72 hrs by annexin-V/PI staining based flow cytometry analysis (reference value: 2.34%); type: functional
# [23] = test system: EA.hy 926; assay: Induction of apoptosis in human EA.hy 926 cells assessed as viable cells at 20 uM incubated for 72 hrs by annexin-V/PI staining based flow cytometry analysis (reference value: 93.8%); type: functional; details: read-out: Activity
# [24] = test system: EA.hy 926; assay: Induction of apoptosis in human EA.hy 926 cells assessed as early apoptotic cells at 20 uM incubated for 72 hrs by annexin-V/PI staining based flow cytometry analysis (reference value: 0.71%); type: functional
# [25] = test system: EA.hy 926; assay: Induction of apoptosis in human EA.hy 926 cells assessed as late apoptotic cells at 20 uM incubated for 72 hrs by annexin-V/PI staining based flow cytometry analysis (reference value: 3.07%); type: functional
# [26] = test system: EA.hy 926; assay: Induction of apoptosis in human EA.hy 926 cells assessed as necrotic cells at 20 uM incubated for 72 hrs by annexin-V/PI staining based flow cytometry analysis (reference value: 2.34%); type: functional
# [27] = test system: EA.hy 926; assay: Induction of apoptosis in human EA.hy 926 cells assessed as viable cells at 40 uM incubated for 72 hrs by annexin-V/PI staining based flow cytometry analysis (reference value: 93.8%); type: functional; details: read-out: Activity
# [28] = test system: EA.hy 926; assay: Induction of apoptosis in human EA.hy 926 cells assessed as early apoptotic cells at 40 uM incubated for 72 hrs by annexin-V/PI staining based flow cytometry analysis (reference value: 0.71%); type: functional
# [29] = test system: EA.hy 926; assay: Induction of apoptosis in human EA.hy 926 cells assessed as late apoptotic cells at 40 uM incubated for 72 hrs by annexin-V/PI staining based flow cytometry analysis (reference value: 3.07%); type: functional
# [30] = test system: EA.hy 926; assay: Induction of apoptosis in human EA.hy 926 cells assessed as necrotic cells at 40 uM incubated for 72 hrs by annexin-V/PI staining based flow cytometry analysis (reference value: 2.34%); type: functional
# [31] = test system: EA.hy 926; assay: Induction of apoptosis in human EA.hy 926 cells at 0.1 to 40 uM incubated for 72 hrs by annexin-V/PI staining based flow cytometry analysis; type: functional, cell-based; details: dose 0.1-40 µM
# [32] = test system: EA.hy 926; assay: Induction of cell cycle arrest in human EA.hy 926 cells assessed as accumulation of cells at S pahse at 0.1 to 40 uM incubated for 48 hrs by propidium-iodide staining based flow cytometry analysis; type: functional; details: dose 0.1-40 µM
# [33] = target: T2, von Hippel-Lindau disease tumor suppressor/Serine/threonine-protein kinase B-raf (Homo sapiens); assay: Protac activity at E3 ubiquitin ligase/BRAF in human HepG2 cells assessed as degradation of BRAF protein; type: cell-based
# [34] = target: T2, von Hippel-Lindau disease tumor suppressor/Serine/threonine-protein kinase B-raf (Homo sapiens); assay: Protac activity at E3 ubiquitin ligase/BRAF in human U87 cells assessed as degradation of BRAF protein; type: cell-based
# [35] = target: T2, von Hippel-Lindau disease tumor suppressor/Serine/threonine-protein kinase B-raf (Homo sapiens); assay: Protac activity at E3 ubiquitin ligase/BRAF in human MDA-MB-231 cells assessed as degradation of BRAF protein; type: cell-based
# [36] = test system: EA.hy 926; assay: Cytotoxicity against human EA.hy 926 cells; type: toxicity, cell-based
# [37] = target: T1, von Hippel-Lindau disease tumor suppressor/Vascular endothelial growth factor receptor 2; assay: Protac activity at VHL E3 ubiquitin ligase/VEGFR-2 in human EA.hy 926 cells assessed as degradation of VEGFR-2 protein at […]; type: cell-based
# Target sequence in this assay (P35968 20-1356 limits assumed): as the sequence (P35968 20-1356 limits assumed) above
# Target sequence in this assay (P40337 whole entry partner): as the sequence (P40337 whole entry) above
# [38] = target: T2, von Hippel-Lindau disease tumor suppressor/Serine/threonine-protein kinase B-raf (Homo sapiens); assay: Protac activity at E3 ubiquitin ligase/BRAF in human EA.hy 926 cells assessed as degradation of BRAF protein at 40 uM incubated for 4 hrs by western blot assay; type: cell-based
# [39] = target: T2, von Hippel-Lindau disease tumor suppressor/Serine/threonine-protein kinase B-raf (Homo sapiens); assay: Protac activity at E3 ubiquitin ligase/BRAF in human EA.hy 926 cells assessed as degradation of BRAF protein at 40 uM incubated for 48 hrs by western blot assay; type: cell-based
# [40] = target: T2, von Hippel-Lindau disease tumor suppressor/Serine/threonine-protein kinase B-raf (Homo sapiens); assay: Protac activity at E3 ubiquitin ligase/BRAF in human EA.hy 926 cells assessed as degradation of BRAF protein at 40 uM incubated for 4 to 48 hrs by western blot assay; type: cell-based; details: time 4-48 hrs, TDE = time-dependent effect
# [41] = test system: EA.hy 926; assay: Induction of cell cycle arrest in human EA.hy 926 cells at 0.1 to 40 uM incubated for 48 hrs by propidium-iodide staining based flow cytometry analysis; type: functional; details: dose 0.1-40 µM
# T2 sequence (P15056 whole entry, looked up): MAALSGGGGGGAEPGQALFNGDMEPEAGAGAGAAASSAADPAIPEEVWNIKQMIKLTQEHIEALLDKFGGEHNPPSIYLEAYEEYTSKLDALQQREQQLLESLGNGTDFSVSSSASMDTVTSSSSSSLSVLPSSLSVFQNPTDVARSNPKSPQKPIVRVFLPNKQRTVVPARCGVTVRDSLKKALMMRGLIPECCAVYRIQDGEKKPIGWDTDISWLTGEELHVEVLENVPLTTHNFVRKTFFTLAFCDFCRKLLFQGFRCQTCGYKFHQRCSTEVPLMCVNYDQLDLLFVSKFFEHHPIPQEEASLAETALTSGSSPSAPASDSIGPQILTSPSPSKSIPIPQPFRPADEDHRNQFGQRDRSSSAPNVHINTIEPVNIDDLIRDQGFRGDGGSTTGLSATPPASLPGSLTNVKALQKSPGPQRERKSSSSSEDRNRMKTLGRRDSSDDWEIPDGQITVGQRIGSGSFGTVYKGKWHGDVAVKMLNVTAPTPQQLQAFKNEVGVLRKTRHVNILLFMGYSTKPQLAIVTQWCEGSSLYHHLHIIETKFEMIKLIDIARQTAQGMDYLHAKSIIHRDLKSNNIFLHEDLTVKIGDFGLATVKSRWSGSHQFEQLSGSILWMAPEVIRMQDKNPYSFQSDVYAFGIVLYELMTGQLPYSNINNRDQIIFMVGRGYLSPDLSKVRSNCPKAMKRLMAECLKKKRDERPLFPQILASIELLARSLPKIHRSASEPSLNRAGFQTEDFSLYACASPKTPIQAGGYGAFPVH
# T2 sequence (P40337 whole entry, looked up): as the sequence (P40337 whole entry) above
smiles,measurement,setting,value
Nc1n[nH]c2cccc(-c3cccc(NC(=O)Nc4cccc(Cl)c4)c3)c12,IC50,[1],7.33 µM
same,IC50,[2],15.8 µM
same,IC50,[3],> 100 µM
same,Activity,[4],Non-Toxic
Cc1ncsc1-c1ccc(CNC(=O)[C@@H]2C[C@@H](O)CN2C(=O)[C@@H](NC(=O)CCCCCC(=O)n2nc(N)c3c(-c4cccc(NC(=O)Nc5cccc(Cl)c5)c4)cccc32)C(C)(C)C)cc1,IC50,[5],0.0422 µM
same,IC50,[1],20 µM
same,IC50,[2],> 100 µM
same,IC50,[3],> 100 µM
same,Activity,[4],Non-Toxic
same,Activity,[6],Active
same,Activity,[7],Active
same,Activity,[8],inactive
same,Activity,[9],inactive
same,Activity,[10],inactive
same,viability at 0.1 µM,[11],91.3%
same,Activity,[12],0.57%
same,Activity,[13],1.77%
same,Activity,[14],6.32%
same,viability at 1 µM,[15],93.1%
same,Activity,[16],0.96%
same,Activity,[17],3.2%
same,Activity,[18],2.75%
same,viability at 10 µM,[19],91.4%
same,Activity,[20],0.77%
same,Activity,[21],2.62%
same,Activity,[22],5.23%
same,viability at 20 µM,[23],88.1%
same,Activity,[24],0.86%
same,Activity,[25],3.93%
same,Activity,[26],7.08%
same,viability at 40 µM,[27],92.2%
same,Activity,[28],1.44%
same,Activity,[29],2.62%
same,Activity,[30],3.7%
same,Activity,[31],Active
same,Activity,[32],Active
Cc1ncsc1-c1ccc(CNC(=O)[C@@H]2C[C@@H](O)CN2C(=O)[C@@H](NC(=O)CCCCCCCCCCCCCCC(=O)n2nc(N)c3c(-c4cccc(NC(=O)Nc5cccc(Cl)c5)c4)cccc32)C(C)(C)C)cc1,IC50,[5],0.00212 µM
same,IC50,[1],28.5 µM
same,IC50,[2],> 100 µM
same,IC50,[3],> 100 µM
same,Activity,[4],Non-Toxic
same,Activity,[6],Dose-Dependent Effect
same,Activity,[33],Active
same,Activity,[34],Active
same,Activity,[35],inactive
CC(C)C[C@H](NC(=O)[C@H](CCc1ccccc1)NC(=O)CN1CCOCC1)C(=O)N[C@@H](Cc1ccccc1)C(=O)N[C@@H](CC(C)C)C(=O)[C@@]1(C)CO1 [CARFILZOMIB],Activity,[36],Toxic
same,Activity,[37],Active
Cc1ncsc1-c1ccc(CNC(=O)[C@@H]2C[C@@H](O)CN2C(=O)[C@@H](NC(=O)CCCCCCCCCCC(=O)n2nc(N)c3c(-c4cccc(NC(=O)Nc5cccc(Cl)c5)c4)cccc32)C(C)(C)C)cc1,IC50,[5],0.00707 µM
same,IC50,[1],21 µM
same,IC50,[2],> 100 µM
same,IC50,[3],> 100 µM
same,Activity,[4],Non-Toxic
same,Activity,[6],Active
same,Activity,[7],Active
same,Activity,[38],Active
same,Activity,[39],Active
same,Activity,[40],Tde
same,Activity,[31],Active
same,Activity,[41],inactive
